From patent US20160312240A1, “MODIFIED PYR/PYL RECEPTORS ACTIVATED BY ORTHOGONAL LIGANDS” (The Regents of the University of California, priority 2010, published 2016)

Key:
[1] = test system: PYR/PYL-PP2C protein-protein interactions; assay: Yeast competition screen: reduction of ABA-promoted PYR/PYL-PP2C interaction; assay type: cell-based; settings: 100 nM ABA and 100 μM test chemical (1000-fold excess), yeast strains
Description: To isolate PYR1 orthogonal receptors, a two-step process was used. First, a large collection of compounds was screened to identify compounds that weakly interact with receptors, defined as such by their ability to displace receptor-bound ABA in competition experiments. Once weak binders were identified, those with the most desirable properties from an end-use perspective were used as targets for iterative mutagenesis and selection schemes. Pre-selection of weak-binding ligands improves the frequency of isolating new receptor proteins, because fewer alterations of the ligand binding site are required to achieve molecular recognition. However, pre-selection is not a prerequisite for success.
Pre-selection of ligands. 74 structurally diverse agrochemicals were obtained, selected from a larger set of approximately 1500 commercially available agrochemicals. These 74 compounds were tested for their ability to reduce ABA-promoted PYR/PYL-PP2C protein-protein interactions in suitable yeast strains when added at 1000-fold excess relative to ABA (i.e. 100 nM ABA and 100 μM test chemical).

PYR1 mutant 27-18 = target: T1, PYR1 mutant 27-18 (Arabidopsis thaliana, UniProt O49686, K59R/S47P/Y120H); assay: Yeast two-hybrid LacZ reporter assay (pAD-HAB1 YRG-2 strain); assay type: cell-based; settings: 1, 5, 10, 25, and 50 μM
T1 construct: expressed in transfected cells; host or cells: S. cerevisiae YRG-2 expressing pAD-HAB1
T1 sequence (O49686 whole entry S47P/K59R/Y120H): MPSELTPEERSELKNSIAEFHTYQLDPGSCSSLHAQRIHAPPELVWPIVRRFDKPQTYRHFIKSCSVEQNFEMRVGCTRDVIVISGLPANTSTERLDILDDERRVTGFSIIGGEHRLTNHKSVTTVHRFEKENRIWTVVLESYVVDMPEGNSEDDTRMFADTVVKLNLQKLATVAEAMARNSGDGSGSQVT
T1 sequence (Q9CAJ0 23-511, stated change not applied, further chain): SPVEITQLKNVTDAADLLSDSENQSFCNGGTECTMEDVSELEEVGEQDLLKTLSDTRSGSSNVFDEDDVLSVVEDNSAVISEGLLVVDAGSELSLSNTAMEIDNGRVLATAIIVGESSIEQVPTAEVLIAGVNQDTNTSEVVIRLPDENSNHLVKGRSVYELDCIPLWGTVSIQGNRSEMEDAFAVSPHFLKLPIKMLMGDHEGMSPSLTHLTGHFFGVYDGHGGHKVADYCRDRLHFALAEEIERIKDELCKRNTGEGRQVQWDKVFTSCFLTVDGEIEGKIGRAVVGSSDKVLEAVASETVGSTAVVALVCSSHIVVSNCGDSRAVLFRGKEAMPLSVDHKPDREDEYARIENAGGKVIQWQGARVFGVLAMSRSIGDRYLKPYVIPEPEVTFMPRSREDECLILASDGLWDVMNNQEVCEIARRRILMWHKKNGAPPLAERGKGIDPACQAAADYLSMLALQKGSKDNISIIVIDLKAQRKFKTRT
Method: (§1) Plasmids for three representative mutant clones (27-9, 27-18, and 27-36) were isolated from the primary yeast cells and transformed into a pAD-HAB1 expressing YRG-2 reporter strain (Park et al., Science 324:1068-1071 (2009)) in which Ga14 drives expression of a LacZ reporter gene to allow colorimetric indication of agonist response. Fenhexamid was applied at concentrations of 1, 5, 10, 25, and 50 μM. […] Mutant 27-36 was responsive to fenhexamid at 25 and 50 μM concentrations.

PYR1 mutant 27-36 = target: T2, PYR1 mutant 27-36 (Arabidopsis thaliana, UniProt O49686, E12G/E43G/I110S/K59R/N133D); assay: as above; assay type: cell-based; settings: 25 and 50 μM (applied 1-50 μM)
T2 construct: expressed in transfected cells; host or cells: S. cerevisiae YRG-2 expressing pAD-HAB1
T2 sequence (Q9CAJ0 23-511): as the sequence (Q9CAJ0 23-511, stated change not applied, further chain) above
T2 sequence (O49686 whole entry E12G/E43G/K59R/I110S/N133D): as the sequence (O49686 whole entry S47P/K59R/Y120H) above, with E12G, E43G, P47S, I110S, H120Y, N133D counted along it
Method: as §1

PYR1 mutant 27-9 = target: T3, PYR1 mutant 27-9 (Arabidopsis thaliana, UniProt O49686, E153G/K59R/P42S/Y120C); assay: as above; assay type: cell-based
T3 construct: expressed in transfected cells; host or cells: S. cerevisiae YRG-2 expressing pAD-HAB1
T3 sequence (O49686 whole entry P42S/K59R/Y120C/E153G): as the sequence (O49686 whole entry S47P/K59R/Y120H) above, with P42S, P47S, H120C, E153G counted along it
T3 sequence (Q9CAJ0 whole entry, further chain): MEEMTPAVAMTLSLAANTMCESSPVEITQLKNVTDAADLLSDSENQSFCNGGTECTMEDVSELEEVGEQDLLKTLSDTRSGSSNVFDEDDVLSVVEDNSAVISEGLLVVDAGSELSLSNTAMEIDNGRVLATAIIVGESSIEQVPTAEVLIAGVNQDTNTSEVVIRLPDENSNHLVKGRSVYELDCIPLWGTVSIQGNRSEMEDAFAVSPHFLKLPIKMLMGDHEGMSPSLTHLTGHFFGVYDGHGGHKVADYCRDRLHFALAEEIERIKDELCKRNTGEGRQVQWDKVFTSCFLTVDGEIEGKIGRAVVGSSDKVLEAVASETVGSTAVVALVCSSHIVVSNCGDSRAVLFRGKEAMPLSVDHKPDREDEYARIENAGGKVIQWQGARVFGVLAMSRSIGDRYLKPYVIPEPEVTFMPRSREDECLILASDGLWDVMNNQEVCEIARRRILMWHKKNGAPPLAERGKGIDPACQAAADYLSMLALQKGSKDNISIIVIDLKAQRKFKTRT
Method: as §1

[2] = test system: PYR1 variants 27B-1, 27B-2, 27B-3, 27B-4, 27B-7, 27B-8 (Table 7); assay: MAV99 growth selection, second round of shuffling (27B' library); assay type: cell-based, Arabidopsis; settings: 20 μM fenhexamid; media lacking uracil; Table 7 variants
Method: To improve fenhexamid receptor sensitivity, DNA shuffling was employed using the same general experimental scheme outlined previously. Briefly, equimolar amounts of plasmid DNA for the fenhexamid receptors shown in Table 1 were pooled and combined with an equimolar amount of the ePCR1 library DNA. The pooled templates were utilized for DNA shuffling, which was conducted as described in Example 1. A library (named “27”) of ˜400,000 shuffled variants was prepared. The DNA for this library was introduced into the MAV99 pAD-HAB 1 yeast strain as described above and the resulting yeast cells collected and grown on FOA-containing plates to reduce constitutive mutants in the library, yielding the 27B′ library. The 27B′ library was plated onto media lacking uracil but containing 20 μM fenhexamid. ˜50 positives were selected from these plates and subsequently retested on media lacking […] to distinguish constitutive mutants (i.e., false positives) from those mutants that grow specifically in response to fenhexamid (i.e., true positives). The PYR1 coding sequences for the true positives were sequenced to yield the following series of fenhexamid-responsive PYR1 variants (Table 7): […]

[3] = test system: 35S::GFP-PYL2 K64R,Y124H,M164I,V67I,V114I transgenic plants; assay: Quantitative RT-PCR of ABA reporter genes in seedlings; assay type: in vivo, Arabidopsis; settings: 100 μM fenhexamid for 6 hours, liquid culture; two independent transgenic lines; FIG. 5
Method: FIG. 5. Characterization of seedling transcriptional responses to fenhexamid in 35S::GFP-PYL2 K64R, Y124H, M164I, V67I, V114I transgenic plants. GFP-expressing T2 seedlings from respective lines were isolated after germination on petri plates and pre-screened by epi-fluorescence microscopy and subsequently grown in liquid media culture for 7 days, after which seedlings were treated with either 100 μM fenhexamid or control (0.1% DMSO) for 6 hours. RNA was subsequently isolated from the samples and utilized in quantitative RT-PCR experiments using three well-characterized ABA responsive transcripts (as described previously, Park et al., 2009). The primer sequences used for RT-PCR analysis were obtained from Roche and synthesized by Invitrogen. Quantitative RT-PCR was performed using SybrGreen on a BioRad CFX 96 real-time PCR instrument. mRNA copy number is expressed as copy number per nanogram total RNA. Data was normalized using an ACT2 gene. Copy number was established using a standard curve of known concentration of the target genes. […]
To further investigate ABA-response activation, we next tested GFP^+ transgenics (T2 segregants) and appropriate controls for activation of 3 ABA reporter genes (P5CS1, RD29A, and NCED3) in response to exposure to fenhexamid in liquid culture using quantitative RT-PCR methods. […]

CC1(C(=O)Nc2ccc(O)c(Cl)c2Cl)CCCCC1 [fenhexamid]
ability to reduce ABA-promoted PYR/PYL-PP2C protein-protein interactions [1]: compete for ABA | Response to fenhexamid (LacZ staining) (PYR1 mutant 27-18): strongly responded | Response to fenhexamid (LacZ staining) (PYR1 mutant 27-36): responsive | Response to fenhexamid (LacZ staining) (PYR1 mutant 27-9; 1 μM): weakly positive | Response to fenhexamid (LacZ staining) (PYR1 mutant 27-9; 5, 10, 25, and 50 μM): strongly responded | Growth in response to fenhexamid (selection) [2]: fenhexamid-responsive | Activation of 3 ABA reporter genes (P5CS1, RD29A, and NCED3) [3]: substantial induction
